Assay [1] has as its target T1, human phenylalanine hydroxylase (hPAH) (Homo sapiens, UniProt P00439).
T1 construct: Recombinant full-length wild-type (WT) hPAH was expressed in E. coli Top10 cells in fusion with a hexa-histidyl peptide; made in house; host or cells: E. coli Top10
T1 sequence (P00439 1-452): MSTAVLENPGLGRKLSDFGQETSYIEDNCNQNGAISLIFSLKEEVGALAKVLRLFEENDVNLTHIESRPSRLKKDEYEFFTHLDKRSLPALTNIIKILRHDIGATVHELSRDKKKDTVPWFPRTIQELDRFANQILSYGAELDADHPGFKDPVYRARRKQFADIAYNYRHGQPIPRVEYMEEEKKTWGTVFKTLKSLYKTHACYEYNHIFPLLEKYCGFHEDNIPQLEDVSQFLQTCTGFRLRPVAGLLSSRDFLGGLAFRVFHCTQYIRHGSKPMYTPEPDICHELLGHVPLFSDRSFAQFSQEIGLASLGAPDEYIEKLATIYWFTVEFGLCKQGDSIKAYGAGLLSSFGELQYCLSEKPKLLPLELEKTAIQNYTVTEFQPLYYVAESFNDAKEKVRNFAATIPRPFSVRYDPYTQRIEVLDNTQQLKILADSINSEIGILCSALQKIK
Kind of assay: Differential scanning fluorimetry (thermal denaturation). The format is binding. The conditions noted are these: for Tm1 (regulatory domain) / Tm2 (catalytic domain): 100 μM compound in 1% DMSO; for Tm1 (regulatory domain): control 43.4 ± 0.6; for Tm2 (catalytic domain): control 53.5 ± 0.4; for ΔTm1 (regulatory domain) / ΔTm2 (catalytic domain): 100 μM compound vs 1% DMSO control, * S.D. < 0.01; for effect on thermal stability of regulatory and catalytic domains (|ΔTm| ≥ 2 °C): 100 μM compound. As to the method: Thermal denaturation profiles of recombinant hPAH were obtained by differential scanning fluorimetry (DSF) in a C1000 Touch thermal cycler equipped with a CFX96 optical reaction module (Bio-Rad; Hercules, CA, USA) as previously described. Briefly, DSF assays (n = 3) were performed using 100 μg/mL hPAH tetramers (final concentration of 0.45 μM of tetramer), SYPRO Orange (5000-fold commercially available stock solution; Invitrogen; Carlsbad, CA, USA) at a 2.5-x final concentration and ramping the temperature from 20 to 90 °C, at 1 °C/min. Fluorescence data were acquired using the FRET channel. Data were processed using CFX Manager Software V3.0 (Bio-Rad) and the GraphPad Prism. Temperature scan curves were fitted to a biphasic dose–response function and the Tm values were obtained from the midpoint of the first (Tm1) and second transitions (Tm2) corresponding, respectively, to the thermal denaturation of the regulatory and catalytic domains. The Tm values in the presence of 3HQ were compared to those obtained in the presence of 1% DMSO (vehicle control) and a change in the Tm was considered significant when the |ΔTm| ≥ 2 °C [22].
On the technique in general: Differential scanning fluorimetry follows unfolding on heating by fluorescence.

Assay [2] concerns the target T1, human phenylalanine hydroxylase (hPAH). As to the kind of experiment: hPAH enzymatic activity assay (NA, 3HQ-A and Phe/3HQ-A conditions). The conditions noted are these: 100 μM compound; for hPAH activity vs respective control: all three conditions (NA, 3HQ-A, Phe/3HQ-A); for fold activation by L-Phe (Phe/3HQ-A vs. 3HQ-A): 100 μM L-Phe. The format is biochemical. As to the method: The hPAH activity was measured essentially as previously described. Briefly, the enzymatic reaction was performed in a 200 μL final volume, containing 250 mM Na-HEPES, pH 7, 0.1 mg/mL catalase (Sigma-Aldrich; St. Louis, MO, USA), 5 μg (final concentration of 0.112 μM of tetramer) of recombinant hPAH tetramers and 100 μM (NH4)2Fe(II)SO4. Using 100 μM L-Phe and 100 μM of tested compound, three experimental conditions were used to study the compounds’ modulatory effect, namely: non activated (NA), 3HQ-activated (3HQ-A) and substrate/3HQ-activated (Phe/3HQ-A) (Supplementary Figure S3). The reaction was started by addition of 75 μM BH4 (Schircks Laboratories; Bauma, Switzerland) prepared in 5 mM ascorbic acid. In the NA assay, the L-Phe substrate and tested compounds were added together with 75 µM BH4 at the start of the hydroxylation reaction. In the 3HQ-A condition, hPAH was pre-incubated with the tested compound for 4 min at 25 °C and the reaction was started by the addition of BH4 together with L-Phe. In the Phe/3HQ-A condition, hPAH was pre-incubated simultaneously with L-Phe and the tested compound (4 min, 25 °C). Appropriate control reactions were performed where the compounds were omitted and 1% DMSO was used. Kinetic parameters were determined using variable concentrations of L-Phe (25 to 2500 μM) and fixed concentrations of BH4 (75 μM) and tested compound (100 μM). After a 1-min incubation, the reaction was stopped, and the amount of L-Tyr produced was quantified by HPLC as previously described. The specific hPAH enzymatic activity is expressed as nmol of L-Tyr produced during 1 min per mg of protein (nmol L-Tyr.min^−1.mg^−1). The steady-state kinetic data were analyzed by nonlinear regression analysis using GraphPad Prism (La Jolla, CA, USA). Data was fitted to the modified Hill equation accounting for cooperative substrate binding as well as substrate inhibition (Equation (1)), to the modified Michaelis–Menten equation which accounts for substrate inhibition (Equation (2)) and to the non-modified Michaelis–Menten equation:v = (Vmax + Vi ([S]^x/Ki^x))/(1 + (K^h/[S]^h) + ([S]^x/Ki^x))(1) v = (Vmax [S])/(Km + [S](1 + [S]/Ki))(2)

In a further assay the target is hPAH. Details: method as in PMID 9843368. Particulars: ref [36]; read-out: KD (high affinity binding to hPAH); cited from earlier work.

Bounds are passed on as bounds.

What is called Kd is the equilibrium constant for the complex coming apart.

`CC(C)(C)OC(=O)c1c(O)c(=O)[nH]c2ccc(OC(F)(F)F)cc12` [Compound 17]: in assay [1], the “Tm1 (regulatory domain)” value was found to be 44.6 ± 0.2 °C, the “Tm2 (catalytic domain)” value is 53.7 ± 0.2 °C, the “ΔTm1 (regulatory domain)” value was “+1.2 ± 0.01 °C” and the “ΔTm2 (catalytic domain)” value is “+0.2 ± 0.01 °C”.

Consider `CC(OC(=O)c1c(O)c(=O)[nH]c2ccc(OC(F)(F)F)cc12)c1ccccc1` (stereo not drawn) [Compound 18], for which, in assay [1], the “effect on thermal stability of regulatory and catalytic domains (|ΔTm| ≥ 2 °C)” value (shortened to “effect on thermal stability … (|ΔTm| ≥ 2 °C)”) was “destabilized the regulatory and catalytic domains”; the “Tm1 (regulatory domain)” value worked out at 40.0 ± 1.0 °C; the “Tm2 (catalytic domain)” value came to 44.0 ± 1.4 °C; the “ΔTm2 (catalytic domain)” value was -9.6 ± 0.31 °C.

Regarding `CCOC(=O)CNC(=O)c1c(O)c(=O)n(Cc2ccccc2)c2ccccc12` [Compound 13], in assay [1], the “Tm1 (regulatory domain)” value was 44.6 ± 0.4 °C, the “Tm2 (catalytic domain)” value came to 53.5 ± 0.1 °C, the “ΔTm1 (regulatory domain)” value is “+1.2 ± 0.01 °C” and the “ΔTm2 (catalytic domain)” value was “+0.1 ± 0.01 °C”. Besides, the “fold enzyme activation by compound (3HQ-A vs. NA)” value (“fold enzyme activation by compound” below) in assay [2] was “decreased enzyme activity”.

As for `CN(Cc1ccccc1)C(=O)c1c(O)c(=O)[nH]c2ccc(OC(F)(F)F)cc12` [Compound 7], in assay [1], the “Tm1 (regulatory domain)” value turned out to be 43.3 ± 0.1 °C, the “Tm2 (catalytic domain)” value turned out to be 53.7 ± 0.1 °C and the “ΔTm2 (catalytic domain)” value was “+0.2 ± 0.01 °C”.

Take `O=C(c1c(O)c(=O)[nH]c2ccc(OC(F)(F)F)cc12)N1CCCC1` [Compound 15]: in assay [1], the “Tm1 (regulatory domain)” value amounted to 44.5 ± 0.8 °C, the “Tm2 (catalytic domain)” value stood at 53.3 ± 0.3 °C, the “ΔTm1 (regulatory domain)” value was “+1.1 ± 0.02 °C” and the “ΔTm2 (catalytic domain)” value was -0.2 ± 0.01 °C.

As for `NCCc1ccc(O)c(O)c1` [dopamine], the Kd on hPAH was < 1000 nM.

Consider `CCOC(=O)[C@H](Cc1ccccc1)NC(=O)c1c(O)c(=O)n(Cc2ccccc2)c2ccc(OC(F)(F)F)cc12` [Compound 4], for which, in assay [1], the “effect on thermal stability … (|ΔTm| ≥ 2 °C)” value was “destabilized the regulatory and catalytic domains”; the “Tm1 (regulatory domain)” value is 37.8 ± 1.9 °C; the “Tm2 (catalytic domain)” value came to 42.7 ± 0.3 °C; the “ΔTm1 (regulatory domain)” value was -5.6 ± 0.28 °C. In addition, the “ΔTm2 (catalytic domain)” value in assay [1] was -10.8 ± 0.08 °C. In addition, the “hPAH activity vs respective control” value in assay [2] is on record as “high decreases in enzyme activity”.

Turning to `CNC[C@H](O)c1ccc(O)c(O)c1` [adrenaline], on hPAH, the Kd is < 1000 nM.

Regarding `CCOC(=O)[C@H](Cc1ccccc1)NC(=O)c1c(O)c(=O)[nH]c2ccccc12` [Compound 1], in assay [1], the “Tm1 (regulatory domain)” value was determined as 39.4 ± 1.0 °C, the “Tm2 (catalytic domain)” value amounted to 55.9 ± 0.2 °C, the “ΔTm1 (regulatory domain)” value was -3.9 ± 0.10 °C and the “ΔTm2 (catalytic domain)” value is “+2.4 ± 0.01 °C”. In addition, the “hPAH activity vs respective control” value in assay [2] is on record as “high decreases in enzyme activity”.

Take `O=C(Nc1ccccc1)c1c(O)c(=O)[nH]c2ccc(OC(F)(F)F)cc12` [Compound 5]: in assay [1], the “effect on thermal stability … (|ΔTm| ≥ 2 °C)” value was “destabilized the regulatory and catalytic domains”; the “Tm1 (regulatory domain)” value is 38.7 ± 0.2 °C; the “Tm2 (catalytic domain)” value is 42.3 ± 0.2 °C; the “ΔTm1 (regulatory domain)” value is -4.7 ± 0.02 °C. Also, the “ΔTm2 (catalytic domain)” value in assay [1] was -11.2 ± 0.05 °C.

Take `CCOC(=O)[C@H](Cc1ccccc1)NC(=O)c1c(O)c(=O)[nH]c2ccc(Cl)cc12` [Compound 2]: in assay [1], the “effect on thermal stability … (|ΔTm| ≥ 2 °C)” value is “destabilized the regulatory and catalytic domains”; the “Tm1 (regulatory domain)” value is 35.6 ± 0.2 °C; the “Tm2 (catalytic domain)” value amounted to 43.0 ± 0.4 °C; the “ΔTm1 (regulatory domain)” value was -7.8 ± 0.04 °C. The “ΔTm2 (catalytic domain)” value in assay [1] was -10.5 ± 0.11 °C. Moreover, the “hPAH activity vs respective control” value in assay [2] is listed as “high decreases in enzyme activity”.

Turning to `O=C(CNC(=O)c1c(O)c(=O)[nH]c2ccc(OC(F)(F)F)cc12)OCc1ccccc1` [Compound 12], in assay [1], the “Tm1 (regulatory domain)” value was 43.8 ± 0.1 °C, the “Tm2 (catalytic domain)” value amounted to 53.1 ± 0.1 °C, the “ΔTm1 (regulatory domain)” value is 0.4 ± 0.01 °C and the “ΔTm2 (catalytic domain)” value was -0.4 ± 0.01 °C. For the same compound, in assay [2], the “fold enzyme activation by compound” value was determined as 0.6 fold and the “fold activation by L-Phe (Phe/3HQ-A vs. 3HQ-A)” value (“fold activation by L-Phe” below) is listed as “allowing substrate activation”.

On to `COC(=O)[C@H](CC(C)C)NC(=O)c1c(O)c(=O)[nH]c2ccc(OC(F)(F)F)cc12` [Compound 10], for which, in assay [1], the “Tm1 (regulatory domain)” value stood at 43.1 ± 0.5 °C, the “Tm2 (catalytic domain)” value stood at 53.4 ± 0.2 °C and the “ΔTm1 (regulatory domain)” value is -0.3 ± 0.01 °C. Besides, in assay [2], the “fold enzyme activation by compound” value came to 0.9 fold and the “fold activation by L-Phe” value turned out to be 1.4 fold. The remaining activity at 100 µM in assay [2] (NA (non-activated) condition, read-out: hPAH residual activity vs control) is 68%.

Regarding `O=C(c1ccccc1)c1c(O)c(=O)[nH]c2ccc(OC(F)(F)F)cc12` [Compound 20], in assay [1], the “Tm1 (regulatory domain)” value stood at 44.2 ± 0.1 °C, the “Tm2 (catalytic domain)” value stood at 53.8 ± 0.1 °C, the “ΔTm1 (regulatory domain)” value is “+0.8± 0.01 °C” and the “ΔTm2 (catalytic domain)” value was “+0.31± 0.01 °C”.

Turning to `NC[C@H](O)c1ccc(O)c(O)c1` [noradrenaline], at hPAH, the Kd was < 1000 nM.

On to `O=C(NCc1ccccc1)c1c(O)c(=O)[nH]c2ccc(OC(F)(F)F)cc12` [Compound 6], for which, in assay [1], the “Tm1 (regulatory domain)” value amounted to 42.5 ± 0.2 °C, the “Tm2 (catalytic domain)” value was found to be 53.0 ± 0.1 °C, the “ΔTm1 (regulatory domain)” value is -0.9 ± 0.01 °C and the “ΔTm2 (catalytic domain)” value was -0.5 ± 0.01 °C.

Turning to `O=C(c1c(O)c(=O)[nH]c2ccc(OC(F)(F)F)cc12)N1CCCCC1` [Compound 16], in assay [1], the “Tm1 (regulatory domain)” value came out at 45.0 ± 1.9 °C, the “Tm2 (catalytic domain)” value turned out to be 53.2 ± 0.8 °C, the “ΔTm1 (regulatory domain)” value was “+1.7 ± 0.07 °C” and the “ΔTm2 (catalytic domain)” value was -0.3 ± 0.01 °C.

For `CC(CCc1ccccc1)OC(=O)c1c(O)c(=O)[nH]c2ccc(OC(F)(F)F)cc12` (stereo not drawn) [Compound 19], in assay [1], the “effect on thermal stability … (|ΔTm| ≥ 2 °C)” value was “destabilized the regulatory and catalytic domains”; the “Tm1 (regulatory domain)” value came out at 33.0 ± 0.3 °C; the “Tm2 (catalytic domain)” value is 35.5 ± 0.1 °C; the “ΔTm1 (regulatory domain)” value is -10.4 ± 0.09 °C.

As to `O=C(NCc1ccccc1)c1c(O)c(=O)n(Cc2ccccc2)c2ccccc12` [Compound 14], in assay [1], the “Tm1 (regulatory domain)” value turned out to be 44.8 ± 0.1 °C, the “Tm2 (catalytic domain)” value turned out to be 53.5 ± 0.1 °C, the “ΔTm1 (regulatory domain)” value is “+1.4 ± 0.01 °C” and the “ΔTm2 (catalytic domain)” value was “+0.1 ± 0.01 °C”. The “fold activation by L-Phe” value in assay [2] was “did not allow substrate activation”.

Values taken from publication PMC8003416, “Modulation of Human Phenylalanine Hydroxylase by 3-Hydroxyquinolin-2(1H)-One Derivatives” (Biomolecules, 2021).
